Reference: US10479780B2, “Aminopyrazole derivatives” (Chugai Seiyaku Kabushiki Kaisha, priority 2015, dated 2019)
Like-named read-outs stand apart in the source and are kept apart here.

Tests used:
Type in all cases: biochemical
[1] = target: T1, human Src enzyme (Homo sapiens, UniProt P12931); experiment: Src enzyme inhibitory activity (time-resolved fluorometry, biotinylated peptide phosphorylation); conditions: read-out: SRC_IC50
T1 construct: purchased Carna Biosciences, Inc. 08-173
Summary of the method: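 Compounds were tested for blocking tyrosine phosphorylation of a biotinylated peptide substrate by recombinant human Src. Phosphorylated product was quantified by time-resolved fluorometry using europium cryptate and XL665 conjugates, and IC50 was calculated against the compound-free control.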

[2] = target: T2, human Yes1 enzyme (Homo sapiens, UniProt P07947); experiment: Yes1 enzyme inhibitory activity (time-resolved fluorometry, biotinylated peptide phosphorylation); conditions: read-out: YES_IC50
T2 construct: made in house
T2 sequence (P07947 whole entry): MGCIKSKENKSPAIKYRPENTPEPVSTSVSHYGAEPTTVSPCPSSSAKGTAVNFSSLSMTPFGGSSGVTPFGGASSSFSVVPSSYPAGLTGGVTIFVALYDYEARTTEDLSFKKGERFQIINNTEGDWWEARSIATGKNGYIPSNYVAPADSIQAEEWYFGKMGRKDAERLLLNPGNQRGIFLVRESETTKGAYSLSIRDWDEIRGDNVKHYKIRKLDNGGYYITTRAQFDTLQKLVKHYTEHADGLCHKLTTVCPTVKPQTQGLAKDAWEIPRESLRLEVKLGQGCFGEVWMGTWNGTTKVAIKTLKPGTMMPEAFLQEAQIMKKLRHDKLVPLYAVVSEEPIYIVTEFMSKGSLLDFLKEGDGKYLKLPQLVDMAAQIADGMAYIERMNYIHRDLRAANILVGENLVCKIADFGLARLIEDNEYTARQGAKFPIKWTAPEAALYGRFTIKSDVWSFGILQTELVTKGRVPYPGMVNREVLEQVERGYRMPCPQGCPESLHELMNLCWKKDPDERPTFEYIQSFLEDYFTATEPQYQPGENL
Summary of the method: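 Inhibition was expressed against a compound-free control to give IC50, using TR-FRET read-out (Eu-cryptate anti-pTyr antibody, streptavidin-XL665).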

[3] = target: T3, human Lck enzyme (Homo sapiens, UniProt P06239); experiment: Lck enzyme inhibitory activity (time-resolved fluorometry, biotinylated peptide phosphorylation); conditions: read-out: LCK_IC50
T3 construct: purchased Carna Biosciences, Inc. 08-170
T3 sequence (P06239 whole entry): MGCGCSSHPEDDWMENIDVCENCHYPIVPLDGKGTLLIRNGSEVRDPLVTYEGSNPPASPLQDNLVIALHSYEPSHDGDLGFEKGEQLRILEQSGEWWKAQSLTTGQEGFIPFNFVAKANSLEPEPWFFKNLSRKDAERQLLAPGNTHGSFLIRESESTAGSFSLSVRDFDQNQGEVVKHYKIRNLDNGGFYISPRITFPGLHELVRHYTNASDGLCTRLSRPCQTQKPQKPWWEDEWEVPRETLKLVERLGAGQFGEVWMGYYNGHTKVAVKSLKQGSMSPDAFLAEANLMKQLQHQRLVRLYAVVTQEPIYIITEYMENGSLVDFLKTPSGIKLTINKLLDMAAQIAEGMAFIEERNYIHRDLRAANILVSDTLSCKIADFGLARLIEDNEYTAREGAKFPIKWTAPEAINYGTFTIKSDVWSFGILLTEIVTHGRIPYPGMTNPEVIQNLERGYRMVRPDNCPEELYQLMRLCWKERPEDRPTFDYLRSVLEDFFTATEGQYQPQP
Summary of the method: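 Readout pairs a europium cryptate-labelled anti-phosphotyrosine antibody with XL665-streptavidin, measured by time-resolved fluorescence. IC50 derived from percent inhibition against untreated controls.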

[4] = biotinylated peptide phosphorylation

T1 sequence (P12931 whole entry): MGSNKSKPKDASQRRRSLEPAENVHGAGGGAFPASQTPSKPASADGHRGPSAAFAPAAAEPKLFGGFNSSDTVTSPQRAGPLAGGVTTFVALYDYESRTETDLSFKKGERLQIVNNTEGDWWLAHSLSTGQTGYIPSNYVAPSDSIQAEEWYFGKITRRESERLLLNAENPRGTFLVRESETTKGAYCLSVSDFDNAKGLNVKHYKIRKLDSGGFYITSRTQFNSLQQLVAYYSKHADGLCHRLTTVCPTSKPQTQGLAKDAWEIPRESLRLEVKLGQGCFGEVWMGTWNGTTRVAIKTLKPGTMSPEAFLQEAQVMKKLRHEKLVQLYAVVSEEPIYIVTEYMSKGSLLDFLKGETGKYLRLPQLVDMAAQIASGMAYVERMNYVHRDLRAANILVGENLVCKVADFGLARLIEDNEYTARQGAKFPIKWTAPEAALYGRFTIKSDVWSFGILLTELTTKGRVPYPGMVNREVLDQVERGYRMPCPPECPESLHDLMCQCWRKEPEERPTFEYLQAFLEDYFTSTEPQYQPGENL

Row | Structure (SMILES) | IC50 [1] [nM] | IC50 [2] [nM] | IC50 [3] [nM] | IC50 [1, 4] [nM] | IC50 [2, 4] [nM] | IC50 [3, 4] [nM]
1 | Cc1cc(-n2ncc(C(=O)c3cc4cc(OC5CCN(C(C)C)CC5)c(N5C(=O)N[C@@H](C)C5=O)cc4[nH]3)c2N)ccc1Oc1ccccc1F [Example 5-1-287, (5S)-3-[2-[5-amino-1-[4-(2-fluorophenoxy)-3-methylphenyl]pyrazole-4-carbonyl]-5-(1-propan-2-ylpiperidin-4-yl)oxy-1H-indol-6-yl]-5-methylimidazolidine-2.4-dione] | 350 | 1 | 17 | – | – | –
2 | Cc1cc(Oc2c(F)cccc2F)ncc1-n1ncc(C(=O)c2cc3cc(C(C)C)c(NS(=O)(=O)C4CCCCC4)cc3[nH]2)c1N [Example 5-1-304, N-[2-[5-amino-1-[6-(2,6-difluorophenoxy)-4-methylpyridin-3-yl]pyrazole-4-carbonyl]-5-propan-2-yl-1H-indol-6-yl] cyclohexanesulfonamide] | 1300 | 32 | 400 | – | – | –
3 | Cc1cc(Oc2ccccc2F)ccc1-n1ncc(C(=O)c2cc3cc(F)c(N4C(=O)NC5(CCCCC5)C4=O)cc3[nH]2)c1N [Example 5-1-450, 3-[2-[5-amino-1-[4-(2-fluorophenoxy)-2-methylphenyl]pyrazole-4-carbonyl]-5-fluoro-1H-indol-6-yl]-1,3-diazaspiro[4.5]decane-2,4-dione] | – | – | – | 150 | 3 | 22
4 | COc1cc2cc(C(=O)c3cnn(-c4cnc(Oc5c(F)cccc5F)cc4C)c3N)[nH]c2cc1NS(=O)(=O)CCCF [Example 4-19-001, N-(2-(5-amino-1-(6-(2,6-difluorophenoxy)-4-methylpyridin-3-yl)-1H-pyrazole-4-carbonyl)-5-methoxy-1H-indol-6-yl)-3-fluoropropane-1-sulfonamide] | – | – | – | 28 | 0.83 | 3.9
5 | Cc1cc(Oc2c(F)cccc2F)ncc1-n1ncc(C(=O)c2cc3cc(OC(F)F)c(N4CCOCC4)cc3[nH]2)c1N [Example 4-25-023, [5-amino-1-[6-(2,6-difluorophenoxy)-4-methylpyridin-3-yl]pyrazol-4-yl]-[5-(difluoromethoxy)-6-morpholin-4-yl-1H-indol-2-yl]methanone] | – | – | – | 86 | 6.3 | 16
6 | Cc1cc2cc(C(=O)c3cnn(-c4cc(C)c(Oc5ccccc5F)cc4C)c3N)[nH]c2cc1NS(C)(=O)=O [Example 5-1-200, N-[2-[5-amino-1-[4-(2-fluorophenoxy)-2,5-dimethylphenyl]pyrazole-4-carbonyl]-5-methyl-1H-indol-6-yl]methanesulfonamide] | 920 | 52 | 270 | – | – | –
7 | Cc1cc(Oc2ccccc2F)ccc1-n1ncc(C(=O)c2cc3cc(F)c(NS(=O)(=O)NCC(C)(C)O)cc3[nH]2)c1N [Example 4-6-004, [5-amino-1-[4-(2-fluorophenoxy)-2-methylphenyl]pyrazol-4-yl]-[5-fluoro-6-[(2-hydroxy-2-methylpropyl)sulfamoylamino]-1H-indol-2-yl]methanone] | – | – | – | 41 | 1.1 | 6.9
8 | Cc1cc(Oc2c(F)cccc2F)ncc1-n1ncc(C(=O)c2cc3cc(F)c(N4C(=O)[C@@H]5CCCN5C4=O)cc3[nH]2)c1N [Example 5-1-432, (7aS)-2-[2-[5-amino-1-[6-(2,6-difluorophenoxy)-4-methylpyridin-3-yl]pyrazole-4-carbonyl]-5-fluoro-1H-indol-6-yl]-5,6,7,7a-tetrahydropyrrolo[1,2-c]imidazole-1,3-dione] | – | – | – | 96 | 3.8 | 7.7
9 | COCCNS(=O)(=O)Nc1cc2[nH]c(C(=O)c3cnn(-c4ccc(Oc5ccccc5F)cc4C)c3N)cc2cc1F [Example 4-5-007, [5-amino-1-[4-(2-fluorophenoxy)-2-methylphenyl]pyrazol-4-yl]-[5-fluoro-6-(2-methoxyethylsulfamoylamino)-1H-indol-2-yl]methanone] | – | – | – | 33 | 0.5 | 18
10 | Cc1cc2cc(C(=O)c3cnn(-c4ccc(Oc5ccccc5F)cc4C)c3N)[nH]c2cc1N1C(=O)NC2(CCN(Cc3ccccc3)CC2)C1=O [Example 5-1-392, 3-[2-[5-amino-1-[4-(2-fluorophenoxy)-2-methylphenyl]pyrazole-4-carbonyl]-5-methyl-1H-indol-6-yl]-8-benzyl-1,3,8-triazaspiro[4.5] decane-2,4-dione] | 89 | 2.9 | 14 | – | – | –
11 | Cc1cc2cc(C(=O)c3cnn(-c4cnc(Oc5ccccc5F)cc4C)c3N)[nH]c2cc1N1CCCS1(=O)=O [Example 4-16-001, {5-amino-1-[6-(2-fluorophenoxy)-4-methylpyridin-3-yl]pyrazol-4-yl}-[6-(1,1-dioxo-1,2-thiazolidin-2-yl)-5-methyl-1H-indol-2-yl]methanone] | – | – | – | 16 | 0.62 | 4.5
12 | Cc1cc(Oc2ccccc2F)ncc1-n1ncc(C(=O)c2cc3cc(F)c(NS(=O)(=O)c4cccc(C#N)c4)cc3[nH]2)c1N [Example 5-1-556, N-[2-[5-amino-1-[6-(2-fluorophenoxy)-4-methylpyridin-3-yl]pyrazole-4-carbonyl]-5-fluoro-1H-indol-6-yl]-3-cyanobenzenesulfonamide] | – | – | – | 1000 | 8.8 | 150
13 | Cc1cc(Oc2ccccc2F)ccc1-n1ncc(C(=O)c2cc3cc(OCC(F)F)c(NS(=O)(=O)CCCF)cc3[nH]2)c1N [Example 4-24-022, N-[2-[5-amino-1-[4-(2-fluorophenoxy)-2-methylphenyl]pyrazole-4-carbonyl]-5-(2,2-difluoroethoxy)-1H-indol-6-yl]-3-fluoropropane-1-sulfonamide] | – | – | – | 30 | 3.2 | 22
14 | Cc1cc(Oc2cccc(F)c2)ccc1-n1ncc(C(=O)c2cc3cc(F)c(C4CCN(C(C)C)CC4)cc3[nH]2)c1N [Example 5-1-009, [5-amino-1-[4-(3-fluorophenoxy)-2-methylphenyl]pyrazol-4-yl]-[5-fluoro-6-(1-propan-2-ylpiperidin-4-yl)-1H-indol-2-yl] methanone] | 9.3 | 1.9 | 2.8 | – | – | –
15 | Cc1cc(Oc2ccccc2F)cc(F)c1-n1ncc(C(=O)c2cc3cc(OCC(F)F)c(N4CCOCC4)cc3[nH]2)c1N [Example 4-25-021, [5-amino-1-[2-fluoro-4-(2-fluorophenoxy)-6-methylphenyl]pyrazol-4-yl]-[5-(2,2-difluoroethoxy)-6-morpholin-4-yl-1H-indol-2-yl]methanone] | – | – | – | 16 | 2.1 | 4.6
16 | Cc1cc(Oc2c(F)cccc2F)ncc1-n1ncc(C(=O)c2cc3cc(OC4CCN(C5CS(=O)(=O)C5)CC4)c(-c4ccccc4Cl)cc3[nH]2)c1N [Example 5-1-290, [5-amino-1-[6-(2,6-difluorophenoxy)-4-methylpyridin-3-yl]pyrazol-4-yl]-[6-(2-chlorophenyl)-5-[1-(1,1-dioxothietan-3-yl)piperidin-4-yl]oxy-1H-indol-2-yl]methanone] | 46 | 2.1 | 30 | – | – | –
17 | Cc1cc(Oc2cccc(F)c2F)ccc1-n1ncc(C(=O)c2cc3cc(F)c(C4CCN(C(C)C)CC4)cc3[nH]2)c1N [Example 4-2-011, [5-amino-1-[4-(2,3-difluorophenoxy)-2-methylphenyl]pyrazol-4-yl][5-fluoro-6-(1-propan-2-ylpiperidin-4-yl)-1H-indol-2-yl]methanone] | – | – | – | 11 | 2.2 | 2.7
18 | Cc1cc(Oc2ccccc2F)ccc1-n1ncc(C(=O)c2cc3cc(C4CCN(C(C)C)CC4)c(F)cc3[nH]2)c1N [Example 4-2-001, [5-amino-1-[4-(2-fluorophenoxy)-2-methylphenyl]pyrazol-4-yl]-[6-fluoro-5-(1-propan-2-ylpiperidin-4-yl)-1H-indol-2-yl]methanone] | – | – | – | 4.1 | 1 | 3.1
19 | Cc1ccnc(S(=O)(=O)Nc2cc3[nH]c(C(=O)c4cnn(-c5cnc(Oc6ccccc6F)cc5C)c4N)cc3cc2C)c1 [Example 5-1-506, N-[2-[5-amino-1-[6-(2-fluorophenoxy)-4-methylpyridin-3-yl]pyrazole-4-carbonyl]-5-methyl-1H-indol-6-yl]-4-rmethylpyridine-2-sulfonamide] | – | – | – | 500 | 3 | 99
20 | Cc1cc(Oc2ccccc2F)ccc1-n1ncc(C(=O)c2cc3cc(OCC(F)F)c(N4C(=O)NC5(CCNCC5)C4=O)cc3[nH]2)c1N [Example 5-1-271, 3-[2-[5-amino-1-[4-(2-fluorophenoxy)-2-methylphenyl]pyrazole-4-carbonyl]-5-(2,2-difluoroethoxy)-1H-indol-6-yl]-1,3,8-triazaspiro [4.5]decane-2,4-dione] | 7.2 | 0.51 | 3.2 | – | – | –
21 | Cc1cc2cc(C(=O)c3cnn(-c4cnc(Oc5c(F)cccc5F)cc4C)c3N)[nH]c2cc1NS(=O)(=O)N1C2CCC1COC2 [Example 5-1-291, N-[2-[5-amino-1-[6-(2,6-difluorophenoxy)-4-methylpyridin-3-yl]pyrazole-4-carbonyl]-5-methyl-1H-indol-6-yl]-3-oxa-8-azabicyclo[3.2.1] octane-8-sulfonamide] | 420 | 10 | 130 | – | – | –
22 | Cc1cc2cc(C(=O)c3cnn(-c4cnc(Oc5ccccc5F)cc4C)c3N)[nH]c2cc1NS(=O)(=O)c1cncc(C(F)(F)F)c1 [Example 5-1-487, N-[2-[5-amino-1-[6-(2-fluorophenoxy)-4-methylpyridin-3-yl]pyrazole-4-carbonyl]-5-methyl-1H-indol-6-yl]-5-(trifluoromethyl) pyridine-3-sulfonamide] | – | – | – | 510 | 11 | 110
